The source of these data is patent publication US7388006B2, “Non-steroidal progesting” (Bayer Schering Pharma AG, priority 2002, dated 2008).

By inhibition is commonly meant how much of the control response was suppressed.

For one assay, the system named is thymus weight. Briefly: Glucocorticoid/anti-glucocorticoid activity in vivo (changes in thymus weight).
The target of assay [1] is T1, glucocorticoid receptor (GR) (Homo sapiens, UniProt P04150).
T1 sequence (P04150 1-777): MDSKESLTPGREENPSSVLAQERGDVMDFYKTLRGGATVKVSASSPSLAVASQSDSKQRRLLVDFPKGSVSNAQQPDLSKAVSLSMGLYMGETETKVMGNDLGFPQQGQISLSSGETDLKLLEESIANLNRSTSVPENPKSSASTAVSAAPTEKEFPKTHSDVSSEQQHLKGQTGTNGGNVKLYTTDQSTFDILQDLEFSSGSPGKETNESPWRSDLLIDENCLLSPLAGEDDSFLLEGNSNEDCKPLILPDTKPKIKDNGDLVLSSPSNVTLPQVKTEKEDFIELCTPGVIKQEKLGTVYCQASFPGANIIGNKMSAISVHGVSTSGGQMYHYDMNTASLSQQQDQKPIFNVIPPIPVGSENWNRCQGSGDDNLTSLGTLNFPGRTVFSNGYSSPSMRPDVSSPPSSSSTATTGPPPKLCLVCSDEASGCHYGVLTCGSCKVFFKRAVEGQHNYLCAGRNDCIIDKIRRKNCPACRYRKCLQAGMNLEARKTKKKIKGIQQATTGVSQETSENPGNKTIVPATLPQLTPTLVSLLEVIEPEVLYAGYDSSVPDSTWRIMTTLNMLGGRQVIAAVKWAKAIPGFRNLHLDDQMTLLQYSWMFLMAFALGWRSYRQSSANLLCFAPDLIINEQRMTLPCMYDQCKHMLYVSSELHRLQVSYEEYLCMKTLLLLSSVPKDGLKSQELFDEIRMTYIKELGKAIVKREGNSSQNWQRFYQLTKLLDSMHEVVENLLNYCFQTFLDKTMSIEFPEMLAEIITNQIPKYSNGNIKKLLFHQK
Briefly: Affinity for the glucocorticoid receptor. Type of assay: binding.

The subject of a further assay is rabbit endometrium. Briefly: Endometrial transformation in rabbit (Clauberg test, McPhail index). The format is in vivo. The procedure:
The test is performed in juvenile female rabbits (New Zealand white, 30 to 35 days old; obtained from Schriever, Germany). From days 1 to 4, all rabbits are primed with […] (s.c., 0.5 ml/kg/day) in order to induce proliferation of the endometrium. From days 7 to 10, the test compound is applied orally (p.o., 0.5 ml/kg/day) at doses of 0.001, 0.01 and 0.1 mg/kg/day. A group which receives only vehicle after estradiol priming serves as a negative control. A second group which receives only progesterone in order to induce endometrial differentiation after estradiol priming is used as a positive control. In order to study the progestagenic activity of ((+)-1), which is the most preferred compound according to the present invention, one treatment group-receives only the compound ((+)-1) after estradiol priming.
Autopsy is performed on […]. As a parameter for progestagenic activity, the McPhail index (i.e., the degree of differentiation) is determined by means of light microscopy (scores: 1 to 4; 1=no glandular differentiation, 4=maximal differentiation).

Assay [2] relates to ovulation in adult female rats. Briefly: In vivo test on progestogenic activity - ovulation inhibition (rat). Conditions: for Ovulation inhibition, result in words / Ovulation inhibition, factor compared to R5020: rat; for Ovulation inhibition, factor compared to R5020: potency relative to R5020. The procedure:
Before the treatment is started, two […] cycles of female rats (weight: 190 to 210 g) were monitored. Only animals having a regular 4 day-cycle are used for the subsequent test. Starting in the metoestrus, the test compound is administered for 4 days (day 1 to 4) and the cycle is controlled thereafter.
For subcutaneous application, the test compounds are dissolved in benzyl benzoate/castor oil (1+9 v/v) and the daily dose is administered in a volume of 1 ml/kg body weight.
For peroral application, the test compounds are suspended in a carrier liquid (85 mg Myrj^R in 100 ml 0.9% w/v NaCl solution) and the daily dose is administered in a volume of 2 ml/kg body weight.
On day 4, after the application of the test compound, those animals having estrus or metoestrus are ovariectomized under ether anesthesia on one side. Preparations of the tubes are prepared and they are investigated for ova by means of microscope. On day 5 all animals (intact and partly ovariectomized) are killed with carbon dioxide, the tubes are preserved and analyzed in the same way. It is then determined, as a percentage, in how many animals ovulation was inhibited. […] Accordingly, this compound is to be regarded as having strong, progestational activity.

For assay [3], the system named is prostate weight and seminal vesicle of orchidectomized rats. Nature of the assay: Androgenic/anti-androgenic activity in vivo in orchidectomized rats (prostate weight, seminal vesicle). Also on record: species or system rat. The source says:
The absence of androgenic as well as anti-androgenic activity in vivo was confirmed by tests performed with orchidectomized rats (change in prostate weight and in the seminal vesicle).

Assay [4] has as its system pregnancy in ovariectomized rats. Nature of the assay: Pregnancy maintenance test in rat. The format is in vivo. The settings on record: for Maintenance of pregnancy, factor compared to R5020: potency relative to R5020. The source says:
In rats, castration induces termination of pregnancy. Progestins (combined with estrogens) are capable of maintaining pregnancy in castrated animals. However, the degree of pregnancy maintenance in castrated rats is optimal only in a defined dose range. Therefore, higher as well as lower doses generally induce a weaker effect. Accompanying treatment with defined doses of estrone (E1) increases the pregnancy maintaining effect of progestins.
Pregnant rats (Wistar Han, SPF) of 190 to 220 g (5 to 8 animals per dose) are ovariectomized on day 8 of pregnancy, 2 hours after the first substance administration. From day 8 to day 14, rats are daily treated with test progestin in combination with a standard dose of E1. One day later, animals are killed with carbon dioxide. For each animal, the number of living and dead fetuses is determined according to the heartbeat of the embryos. In case of empty uteri, the number of implantation sites is determined by means of staining with a 10% ammonium sulfide solution.
S.c. (subcutaneous) application: The test progestin is dissolved in benzyl benzoate/castor oil (1+4 v/v), and the daily dose is administered in a volume of 1 ml/kg body weight.
P.o. (peroral) application: The test progestin is suspended in a carrier liquid (85 mg Myrj^R in 100 ml 0.9% w/v NaCl solution), and the daily dose is administered in a volume of 2 ml/kg body weight.
I.p. (intraperitoneal) application: The test progestin is dissolved in propylene glycol and charged in miniature osmotic pumps (type 2001, 1.0 μl/h, 7 days), which are placed in the abdominal cavity of the rat.
The standard dose of estrone is 0.005 mg/kg body weight s.c. and is dissolved in benzyl benzoate/castor oil ([…]).
It is determined the pregnancy maintenance per animal [%], the pregnancy maintenance per dose (median of single values) and the EC50 (dose, at which pregnancy is maintained in 50% of the animals; 100% corresponds to control animals that are not ovariectomized). The results of the test are further discussed below in c).

For `O=C1OCc2cc(NC(=O)C(O)(CC3(c4cc(C(F)(F)F)ccc4F)CC3)C(F)(F)F)ccc21` (single isomer, unassigned; (+)) [((+)-1), (+)-5-{2-hydroxy-3-[1-(2-fluoro-5-trifluoromethylphenyl)-cyclopropyl]-2-trifluoromethyl-propionylamino}-phthalide], the “Glucocorticoid and anti-glucocorticoid activity in vivo” value in the assay with thymus weight is listed as “does not seem to exhibit any glucocorticoid or any anti-glucocorticoid activity in vivo”. Besides, the “Affinity for the glucocorticoid receptor (GR)” value in assay [1] is recorded as “very high affinity”. In addition, in the assay on rabbit endometrium (Clauberg test, rabbit), the “Potency upon subcutaneous versus oral application, in words” value is “identical potency”. Further, the “Threshold Value (endometrial transformation)” value with rabbit endometrium (oral (p.o.)) lay in the range of 0.001 to 0.01 mg/kg. In assay [2] (Rattus norvegicus, dose 10 μg/kg, days 1 to 4, female rats), this molecule displayed an inhibition at 0.01 mg/kg of 0%. In addition, the inhibition at 0.03 mg/kg in assay [2] (Rattus norvegicus, dose 30 μg/kg, days 1 to 4, female rats) was determined as 14%. The molecule further gave an inhibition at 0.1 mg/kg in assay [2] (Rattus norvegicus, dose 100 μg/kg, days 1 to 4, female rats) of 100%. Besides, the results for the “Ovulation inhibition, result in words” value in assay [2] and in assay [2] (listed as ((+)-l)) were “at least as potent as the standard progestin” and “efficiently inhibited ovulation”, respectively. The results for the “Ovulation inhibition, factor compared to R5020” value in assay [2] (listed as ((+)-l)) and in assay [2] (listed as ((+)−1)) were 1 to 2 and 1-2, respectively. Moreover, the “Androgenic and anti-androgenic activity in vivo” value in assay [3] was “no androgenic as well as no anti-androgenic activity in vivo”. In addition, in assay [4] (dose 100 times higher than the dose required for maintaining pregnancy), the “Androgenic activity in the pregnancy maintenance test” value is “no androgenic activity”. For the same molecule, the “Pregnancy-maintaining activity EC50 value” in assay [4] (rat) is 12 µg/kg/day. For the same molecule, the “Maintenance of pregnancy, factor compared to R5020” value in assay [4] (rat) was “eight times as potent”; in assay [4] (rat, listed as ((+)−1)) it was 8.
